{
  "source": "patent US11033538B2",
  "about": "“Dosing regimens for the treatment of lysosomal storage diseases using pharmacological chaperones” (Amicus Therapeutics, Inc., priority 2007, dated 2021)",
  "key": {"[1]": {"test": "Example 13, tissue half-life of DGJ", "type": "in vivo, mice", "conditions": "male, hR301Q GLA Tg/KO, mouse, oral; skin, heart, kidney; after 4 weeks 100 mg/kg/day"}, "GL-3 [2]": {"test_system": "GL-3", "test": "Example 6, kidney biopsy GL-3 by mass spectroscopy", "type": "in vivo, human", "protocol": "(§1) Four male patients received a single 150 mg Q.O.D for 12 weeks (Group B); while five male patients received 150 mg Q.O.D. for 24 weeks (Group C). Finally nine female patients were randomized to receive one of three dosages: 50, 150 or 250 mg Q.O.D for 12 weeks (Group D) (FIG. 8).\nKidney biopsies were performed at baseline, 12 weeks and 24 weeks post-treatment and evaluated for GL-3 deposits in various renal cells. GL-3 presence in the tissue was examined histologically as well as through the use of mass spectroscopy. Light microscopic analysis of kidney biopsies was performed, wherein the accumulation of GL-3 in the tissue was classified in a manner similar to the classification analysis performed in Kidney International, Vol. 62 (2002), pp. 1933-1946 which is hereby incorporated by reference. Cells were classified as containing no GL-3 accumulation (“0”); mild GL-3 accumulation (“1”); moderate GL-3 accumulation (“2”); or severe GL-3 accumulation (“3”).\nKidney GL-3 levels were assessed using histological and mass spectroscopic analysis. Kidney biopsies were examined in four of the “good” responders, two of the “moderate” responders, and two of the “non” responders. Accumulation of GL-3 was examined in three different kidney cell types: interstitial capillaries, distal tubules, and podocytes."}, "GL-3 [3]": {"test_system": "GL-3", "test": "Example 11, immunohistochemical staining of GL-3 in hR301Q GLA Tg/KO mice", "type": "in vivo", "protocol": "Immunohistochemical staining with a monoclonal anti-GL-3 antibody (nuclei counterstained with methyl green) was also performed. […] Data shown are representative pictures from 7-8 mice/group."}, "GL-3 [4]": {"test_system": "GL-3", "test": "Example 12, GL-3 levels in tissues of hR301Q GLA Tg/KO mice", "type": "in vivo", "conditions": "3-300 mg/kg/day, 4 weeks; p<0.05 vs. untreated", "protocol": "(§2) Tissue lysates from skin, heart, and kidney were prepared and tested for GLA activity (using 4-MUG as substrate, expressed in nmol/mg protein/hr), GLA protein (using immunoblotting of […] tissue lysate with anti-human GLA antibody) and GL-3 levels (using LC-MS/MS, expressed in mg/g of tissue weight). […] Each bar represents the mean±SEM of n=7-8 mice/group. Each lane in the Western blots represents one mouse from each group."}, "GL-3 [5]": {"test_system": "GL-3", "test": "Example 6, urinalysis of GL-3", "type": "in vivo, human", "protocol": "as §1\nUrine was analysed at baseline and periodically every 2-6 weeks for GL-3."}, "hR301Q GLA [6]": {"biological_target": "T1, hR301Q GLA (Homo sapiens, UniProt P06280, R301Q)", "T1 construct": "from tissue; host or cells: skin, heart, kidney lysates of hR301Q GLA Tg/KO mice", "T1 sequence (P06280 32-429 R301Q)": "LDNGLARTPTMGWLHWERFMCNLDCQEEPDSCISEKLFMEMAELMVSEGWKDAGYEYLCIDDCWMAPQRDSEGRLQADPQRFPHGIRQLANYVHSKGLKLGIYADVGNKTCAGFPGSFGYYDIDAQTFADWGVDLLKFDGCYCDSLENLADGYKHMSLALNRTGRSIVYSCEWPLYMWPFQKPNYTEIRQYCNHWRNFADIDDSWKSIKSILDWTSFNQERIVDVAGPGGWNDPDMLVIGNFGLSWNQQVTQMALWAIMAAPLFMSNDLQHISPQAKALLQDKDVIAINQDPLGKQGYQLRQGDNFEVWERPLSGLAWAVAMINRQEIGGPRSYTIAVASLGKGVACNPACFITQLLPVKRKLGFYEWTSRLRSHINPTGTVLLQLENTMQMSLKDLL", "test": "Example 13, half-life of elevated hR301Q GLA after DGJ withdrawal", "type": "in vivo, mice", "conditions": "after 4 weeks 100 mg/kg/day DGJ, washout; exponential decay curves"}, "GL-3 [7]": {"test_system": "GL-3", "test": "Example 8, GL-3 in tissues of transgenic mice expressing R301Q", "type": "in vivo", "conditions": "100 mg/kg ad libitum, four weeks"}, "[8]": {"test_system": "patients with Fabry disease", "test": "Example 15, echocardiography", "type": "in vivo, human", "conditions": "for decrease in interventricular septal wall thickness from baseline: up to 24 months", "protocol": "Left ventricular mass index, left posterior wall thickness, diastolic, interventricular septum thickness, diastolic and other parameters were assessed through blinded, centralized evaluation. The baseline visit of extension study AT1001-041/NCT01458119 was used as the last assessment."}, "GL-3 [9]": {"test_system": "GL-3", "test": "Example 5, kidney GL-3 levels by electron microscopy", "type": "in vivo, human", "protocol": "Eight patients in the study received an ascending dose of 25, 100, and then 250 mg b.i.d. over 6 weeks, followed by 50 mg/day for the remainder of the study.\nKidney GL-3 levels were assessed by an independent expert using electron microscopy."}, "GL-3 [10]": {"test_system": "GL-3", "test": "Example 15, 24-hour urine GL-3", "type": "in vivo, human", "protocol": "Plasma lyso-Gb3 and 24-hour urine GL-3 were analyzed by liquid chromatography-mass-spectroscopy using a novel stable isotope-labeled internal standard, 13C6-lyso-Gb3 (lower-limit-of-quantification: 0.200 ng/mL, 0.254 nmol/L)."}, "GL-3 [11]": {"test_system": "GL-3", "test": "Example 15, qualitative GL-3 in glomerular cells", "type": "in vivo, human", "conditions": "12 months of DGJ", "protocol": "GL-3 changes in podocytes, endothelial cells, and mesangial cells, and glomerular sclerosis, were assessed qualitatively by the same 3 pathologists blinded to treatment/visit."}, "hR301Q GLA [12]": {"biological_target": "T1, hR301Q GLA", "test": "Example 12, GLA activity and protein in tissues of hR301Q GLA Tg/KO mice", "type": "in vivo", "conditions": "4 weeks", "protocol": "as §2"}, "Fabry patients": {"test_system": "Fabry patients", "test": "Example 6, self-reported Fabry symptoms", "type": "in vivo, human", "text": "Patients self-reported changes in symptoms at the end of 12 or 24 week treatment period to evaluate, inter alia, reduction in acroparaesthesia. This may be evidence of clearance of GL-3 in the microvasculature of peripheral nerve cells."}, "[13]": {"conditions": "female expected good responders"}},
  "data": [
    {"compound": "OC[C@H]1NC[C@H](O)[C@@H](O)[C@H]1O", "note": "[DGJ, (2R,3S,4R,5S)-2-(hydroxymethyl) piperdine-3,4,5-triol]", "values": [
      {"measurement": "half-life", "setting": "[1]", "result": "6 to 7", "unit": "h"},
      {"measurement": "expected good responders with kidney GL-3 decrease of greater than 10%", "setting": "GL-3 [2]; female", "result": "two of the five"},
      {"measurement": "mean decrease in kidney GL-3 levels (mass spectoanalysis)", "setting": "GL-3 [2]; [13]", "result": 20, "unit": "%"},
      {"measurement": "good responders with kidney GL-3 decrease of greater than 10%", "setting": "GL-3 [2]; male good responders", "result": 3},
      {"measurement": "mean decrease in kidney GL-3 levels (mass spectroanalysis)", "setting": "GL-3 [2]; male good responders", "result": 28, "unit": "%"},
      {"measurement": "GL-3 signal, less frequent vs daily dosing", "setting": "GL-3 [3]; 300 mg/kg, 4 weeks", "result": "greater GL-3 reduction was seen in each tissue"},
      {"measurement": "GL-3 signal by immunohistochemistry", "setting": "GL-3 [3]; both daily and less frequent treatment, skin, heart, kidney", "result": "reduced the amount and intensity of GL-3 signal in each tissue"},
      {"measurement": "GL-3 levels in skin, heart, kidney", "setting": "GL-3 [4]", "result": "significant reduction in GL-3 levels"},
      {"measurement": "expected good responders with urine GL-3 decrease greater than 10%", "setting": "GL-3 [5]; female", "result": "3 of the 5"},
      {"measurement": "mean decrease in urine GL-3 levels", "setting": "GL-3 [5]; [13]", "result": 20, "unit": "%"},
      {"measurement": "good responders with urine GL-3 decrease greater than 10%", "setting": "GL-3 [5]; male good responders", "result": "eight of the eleven"},
      {"measurement": "mean decrease in urine GL-3 levels", "setting": "GL-3 [5]; male good responders", "result": 38, "unit": "%"},
      {"measurement": "urine GL-3 following treatment", "setting": "GL-3 [5]; male moderate and non responders", "result": "overall increases in urine GL-3"},
      {"measurement": "half-life of elevated tissue hR301Q GLA levels", "setting": "hR301Q GLA [6]", "result": "48 to 60", "unit": "h"},
      {"measurement": "GL-3 aggregates, histology of renal tube and cardiac sections", "setting": "GL-3 [7]", "result": "presence of GL-3 aggregates was reduced"},
      {"measurement": "concentration of GL-3 in the sampled tissues", "setting": "GL-3 [7]", "result": "reduced"},
      {"measurement": "LVMi change from baseline (±SD)", "setting": "[8]; 30/36 months of treatment, ±21.5", "result": "−7.8", "unit": "g/m^2"},
      {"measurement": "LVMi change from baseline", "setting": "[8]; 30/36 months, patients with baseline LVH (n=4)", "result": "−30.0±17.5", "unit": "g/m^2"},
      {"measurement": "left ventricular posterior wall thickness", "setting": "[8]; in vivo", "result": "stable for up to 24 months"},
      {"measurement": "decrease in interventricular septal wall thickness from baseline", "setting": "[8]", "result": 5.2, "unit": "%"},
      {"measurement": "decrease in interventricular septal wall thickness from baseline", "setting": "[8]; ±0.051, baseline 1.17 cm±0.057", "result": 0.061, "unit": "cm"},
      {"measurement": "decrease of GL-3 levels in other kidney cell types including interstitial capillaries", "setting": "GL-3 [9]; both patients", "result": "less than 1 unit"},
      {"measurement": "kidney GL-3 (mesangial cells, glomerular endothelium, distal tubules)", "setting": "GL-3 [9]; one patient, 12 weeks of treatment", "result": "observed decrease in GL-3 in multiple cell types of the kidney of one patient"},
      {"measurement": "kidney GL-3 (same cell types)", "setting": "GL-3 [9]; second patient, 24 weeks, not independently conclusive", "result": "decrease of GL-3 levels in the same kidney cell types"},
      {"measurement": "mean change in 24-hour urine GL-3 substrate (±SEM) concentration", "setting": "GL-3 [10]; baseline to month 6, suitable mutants, p=0.44 vs placebo", "result": "−361±169", "unit": "ng/mg creatinine"},
      {"measurement": "24-hour urine GL-3 substrate (±SEM) concentration reached", "setting": "GL-3 [10]; month 6, suitable mutants", "result": "555±151", "unit": "ng/mg creatinine"},
      {"measurement": "samples with increases in glomerular cell GL-3", "setting": "GL-3 [11]", "result": "None of the samples had increases"},
      {"measurement": "biopsies with decrease in glomerular podocyte GL-3", "setting": "GL-3 [11]; 5 of 23 biopsies", "result": 22, "unit": "%"},
      {"measurement": "biopsies with decrease in endothelial cell GL-3", "setting": "GL-3 [11]; 6 of 23 biopsies", "result": 26, "unit": "%"},
      {"measurement": "biopsies with decrease in mesangial cell GL-3", "setting": "GL-3 [11]; 11 of 23 biopsies", "result": 48, "unit": "%"},
      {"measurement": "GLA activity in skin, heart, kidney", "setting": "hR301Q GLA [12]; 3, 10, 30, 100 or 300 mg/kg/day, p<0.05 vs. untreated", "result": "significant and dose-dependent increase in GLA activity"},
      {"measurement": "GLA protein (immunoblotting)", "setting": "hR301Q GLA [12]; 3-300 mg/kg/day", "result": "significant and dose-dependent increase"},
      {"measurement": "self-reported symptoms", "setting": "Fabry patients; four female expected good responders", "result": "decreases in pain"},
      {"measurement": "self-reported symptoms", "setting": "Fabry patients; seven male good responders", "result": "improved gastrointestinal function and a decrease in pain"}
    ]}
  ]
}
